Columns and labels:
[1] = relative nephrotoxicity of HPBCD and BCD, intraperitoneal; type: in vivo, rat; conditions: rat, in vivo, ip, BCD 0.75%
Procedure: (§1) A first study was conducted to determine the relative nephrotoxicity of HPBCD and BCD. A control group using phosphate buffer solution was also included in the study.
(§2) Three groups of normal rats were utilized in this study. […] Group I rats were given the vehicle solution of phosphate buffer saline (PBS). Group II rats were subdivided into three sub-groups. The first sub-group received a solution having a concentration of 1.5% HPBCD, the second sub-group received a solution having a concentration of 3% HPBCD while the third sub-group received a solution having a concentration of 6% HPBCD. Group III rats were given a solution having a concentration of 0.75% BCD.
(§3) Animals from each group were sacrificed at 24 and 72 hours after injection of the peritoneal solution. The animals were sacrificed under general anesthesia and exsanguinated from the abdominal aorta. Plasma was separated and blood urea nitrogen and creatinine was measured and used as an index of renal toxicity of the solutions.

[2] = system: normal rats; experiment: as above; type: in vivo, rat; conditions: for Mortality (died/total): BCD 0.75% w/v, HPBCD 1.5 and 3% w/v, 15 ml/100 g i.p.; for Rats died of kidney failure: in words
Procedure: as §1, §2, §3

[3] = system: laboratory animals; conditions: cited from earlier work
[4] = 1 day, BCD 0.75%, HPBCD 1.5 and 3%
[5] = 3 day, BCD 0.75%, HPBCD 1.5 and 3%

OC[C@H]1O[C@@H]2O[C@H]3[C@H](O)[C@@H](O)[C@@H](O[C@H]4[C@H](O)[C@@H](O)[C@@H](O[C@H]5[C@H](O)[C@@H](O)[C@@H](O[C@H]6[C@H](O)[C@@H](O)[C@@H](O[C@H]7[C@H](O)[C@@H](O)[C@@H](O[C@H]8[C@H](O)[C@@H](O)[C@@H](O[C@H]1[C@H](O)[C@H]2O)O[C@@H]8CO)O[C@@H]7CO)O[C@@H]6CO)O[C@@H]5CO)O[C@@H]4CO)O[C@@H]3CO [BCD, beta-cyclodextrin]
mortality at 24 h ([1]; 1d, n = 6): 16.7% | mortality at 72 h ([1]; 3d, n = 9): 77.8% | Mortality (died/total) ([2]; 1 day): 1/6 | Kidney size [2, 4]: enlarged | Kidney weight [2, 4]: increased | BUN ([2]; 1 day, BCD 0.75%, HPBCD 1.5 and 3%, Table III): 79.4 mg/dL | Mortality (died/total) ([2]; 3 day): 8/9 | Kidney size [2, 5]: enlarged | Kidney weight [2, 5]: increased | BUN ([2]; BCD 0.75%, 1d, n = 6): 79.4 mg/dL | Final body weight Wt (f) ([2]; BCD 0.75%, 1d, n = 6): 218 g | Initial body weight Wt (i) ([2]; BCD 0.75%, 1d, n = 6): 223 g | Left kidney weight (Lt kd) ([2]; BCD 0.75%, 1d, n = 6): 1272 mg | Left kidney/body weight (Lt kd/wt) ([2]; BCD 0.75%, 1d, n = 6): 5.83 mg/g | Right kidney weight (Rt kd) ([2]; BCD 0.75%, 1d, n = 6): 1307 mg | Right kidney/body weight (Rt kd/wt) ([2]; BCD 0.75%, 1d, n = 6): 5.98 mg/g | Rats died of kidney failure ([2]; BCD 1d Group): One rat | Rats died of kidney failure ([2]; BCD 3d Group (nine rats)): all but two of the nine rats | Renal toxicity (kidney enlargement, death) ([3]; laboratory animals, reports in literature): enlargement of the kidneys and death due to kidney failure | Toxicity at high concentrations ([3]; rat, in vivo): toxic | Removal of intravenously administered toxins ([3]; rats, peritoneal dialysate, Perrin et al.): accelerate the removal of intravenously administered toxins in rats

Source: patent publication US4889634A, “Dialysate solution containing hydroxypropyl-beta-cyclodextrin and method of using same” (priority 1988, dated 1989)
